Data published in EP1358888A1, “The human peptide antibiotic LL-37/hCAP-18 is an inducer of angiogenesis” (priority 2002, dated 2003).
“Also recorded” adds a separate entry of the source. Like-named read-outs stand apart in the source and are kept apart here.

System: HUVECs
Experiment: Inhibition experiments: signalling inhibitors on LL-37/hCAP-18-induced endothelial proliferation
Format: cell-based, human
Protocol: Stimulation of angiogenesis by LL-37/hCAP-18 in vitro. a, In vitro proliferation assays. HUVECs were seeded on six well plastic dishes and cultivated in serum free medium. Different concentrations of LL-37/hCAP-18 and control peptides were added to the culture medium. Figures on the left hand side indicate the numbers of cells per µl of volume after 72 h. VEGF was used as positive control. […] A significance level of P < 0.05 is labeled with **.b. […] HUVECs were seeded on Matrigel support and cultivated in serum free medium in the absence (c) or presence (d) of 0.5 µg/ml LL-37/hCAP-18. After 18 h, the cultures were inspected for the formation of rings and cords. Representative figures are shown.
Endothelial cells from human umbilical veins (HUVEC) were isolated as described before ^8. 10^4 cells were seeded on six well plastic dishes in serum free medium. Different concentrations of LL-37 were added to the culture medium. VEGF (5 ng / ml, 165 amino acid variant, Sigma Chemicals, Munich, Germany) was used as positive control. After 72 h the cells were detached from the support and counted. Experiments were repeated ten times using synthetic LL-37/hCAP-18 (37 C-terminal amino acids) and the hexapeptide WKYMVm, wherein "m" denotes the D-form of the amino acid methionine, from two different sources (IPF Pharmaceuticals, Hannover, Germany and Institute for Biochemistry, Humboldt-University of Berlin, Germany). As control peptide we used the peptide L-14 […] to have any interactions with FPRL1 from the same source (Humboldt-University). Human serum (10 %, donor with ABO blood group O) was applied under the same conditions to analyze any impact on induction of proliferation by LL-37. For inhibition experiments we applied inhibitors of G-protein coupled receptors (pertussis toxin, 10 ng/ml), PI-3K (wortmannin), and PKC (GF 109203X). For Matrigel assays HUVECs were seeded on Matrigel support (Beckton Dickinson, Franklin Lakes, NJ) and cultivated in serum free medium in the absence or presence of 0.5 µg/ml LL-37. After 18 h, the cultures were inspected for the formation of rings and cords. Experiments were repeated three times. We measured the ability of LL-37/hCAP-18 to accelerate proliferation of HUVECs in a proliferation assay. […] WKYMVm is a specific agonist for FPRL1 ^10.
As a next step we analyzed which mechanisms might be involved in the angiogenic activity of LL-37/hCAP-18. We applied inhibitors of G-protein coupled receptors (pertussis toxin), PI-3K (wortmannin), and PKC (GF 109203X) and monitored cell proliferation as outcome parameter.

SMILES	effect of inhibitor on proliferative response induced by LL-37/hCAP-18 (preincubation of endothelial cells with inhibitor (pertussis toxin 10 ng/ml))	effect of inhibitor on baseline cell proliferation (without LL-37/hCAP-18)	effect of inhibitor on baseline cell proliferation	effect of inhibitor on proliferative response induced by LL-37/hCAP-18
CN(C)CCCn1cc(C2=C(c3c[nH]c4ccccc34)C(=O)NC2=O)c2ccccc21 [GF 109203X]	inhibition of the proliferative response; also recorded: inhibited activities of LL-37/hCAP-18 on endothelial proliferation	no effect on the baseline measurements		
COC[C@H]1OC(=O)c2coc3c2[C@@]1(C)C1=C(C3=O)[C@@H]2CCC(=O)[C@@]2(C)C[C@H]1OC(C)=O [wortmannin]			no effect on the baseline measurements	inhibition of the proliferative response; also recorded: inhibited activities of LL-37/hCAP-18 on endothelial proliferation
